Measurements taken from PubChem BioAssay (NCI).
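Growth conditions: 96-well plates. Treatment: test compound, 48 hours, 5 concentrations. Analysis: linear interpolation between bracketing concentrations; unreached endpoints set to highest concentration. GI50: concentration for 50% inhibition of growth. TGI is the concentration that stops growth completely.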

Experiments:
Test in all cases: inhibition of tumour cell growth, NCI panel, 48 h
[1] = system: M14 melanoma
[2] = system: UO-31 renal
[3] = system: BT-549 breast
[4] = system: LOX IMVI melanoma
[5] = system: PC-3 prostate
[6] = system: OVCAR-4 ovarian
[7] = system: HCT-15 colon
[8] = system: K-562 leukemia
[9] = system: HL-60(TB) leukemia
[10] = system: SF-295 CNS
[11] = system: EKVX NSCLC
[12] = system: SF-539 CNS
[13] = system: 786-0 renal
[14] = system: A498 renal
[15] = system: KM12 colon
[16] = system: MDA-MB-468 breast
[17] = system: IGROV1 ovarian
[18] = system: HCC-2998 colon
[19] = system: SK-MEL-2 melanoma
[20] = system: U251 CNS
[21] = system: MOLT-4 leukemia
[22] = system: HT29 colon
[23] = system: MDA-MB-435
[24] = system: MCF7 breast
[25] = system: HOP-62 NSCLC
[26] = system: TK-10 renal
[27] = system: MDA-MB-231 breast
[28] = system: SW-620 colon
[29] = system: SNB-75 CNS
[30] = system: UACC-257 melanoma
[31] = system: NCI-H460 lung
[32] = system: CCRF-CEM leukemia
[33] = system: SF-268 CNS
[34] = system: SR leukemia
[35] = system: DU-145 prostate
[36] = system: HCT-116 colon
[37] = system: RPMI-8226 leukemia
[38] = system: SK-MEL-28 melanoma
[39] = system: HOP-92 NSCLC
[40] = system: COLO 205 colon
[41] = system: NCI-H23 lung
[42] = system: NCI-H226 lung
[43] = system: MALME-3M melanoma
[44] = system: SK-MEL-5 melanoma
[45] = system: NCI/ADR-RES ovarian
[46] = system: OVCAR-5 ovarian
[47] = system: RXF 393 renal
[48] = system: HS 578T breast
[49] = system: A549 NSCLC
[50] = system: OVCAR-3 ovarian
[51] = system: SN12C renal
[52] = system: ACHN renal
[53] = system: CAKI-1 renal
[54] = system: OVCAR-8 ovarian
[55] = system: SNB-19 CNS
[56] = system: NCI-H522 lung
[57] = system: UACC-62 melanoma
[58] = system: SK-OV-3 ovarian
[59] = system: T-47D breast

## Oc1ccc(F)c(Nc2nc(SCCN3CCOCC3)nc3c2cnn3CC(Cl)c2ccc(Br)cc2)c1 (configuration not stated)
[1]
  GI50: 4.18 µM
  TGI: 16.4 µM
[2]
  GI50: 3.15 µM
  TGI: 55 µM
[3]
  GI50: 7.46 µM
  TGI: 22.7 µM
[4]
  GI50: 2.56 µM
  TGI: 10.5 µM
[5]
  GI50: 4.51 µM
  TGI: > 100 µM
[6]
  GI50: 6.92 µM
  TGI: > 100 µM
[7]
  GI50: 2.72 µM
  TGI: 20.5 µM
[8]
  GI50: 1.69 µM
  TGI: 14.5 µM
[9]
  GI50: 3.42 µM
  TGI: 33.6 µM
[10]
  GI50: 2.66 µM
  TGI: 11.1 µM
[11]
  GI50: 4.44 µM
  TGI: > 100 µM
[12]
  GI50: 4.33 µM
  TGI: 16.3 µM
[13]
  GI50: 5.02 µM
  TGI: 75.2 µM
[14]
  GI50: 14.5 µM
  TGI: 45 µM
[15]
  GI50: 5.22 µM
  TGI: > 100 µM
[16]
  GI50: 2.44 µM
  TGI: 9.54 µM
[17]
  GI50: 3.7 µM
  TGI: 22.7 µM
[18]
  GI50: 3.64 µM
  TGI: 15.4 µM
[19]
  GI50: 10.2 µM
  TGI: 22.4 µM
[20]
  GI50: 5.19 µM
  TGI: 18.5 µM
[21]
  GI50: 2.83 µM
  TGI: 14.6 µM
[22]
  GI50: 3.33 µM
  TGI: 12.8 µM
[23]
  GI50: 6.74 µM
  TGI: 24.3 µM
[24]
  GI50: 2.87 µM
  TGI: 40.2 µM
[25]
  GI50: 5.08 µM
  TGI: 39 µM
[26]
  GI50: 21.1 µM
  TGI: 62.5 µM
[27]
  GI50: 2.8 µM
  TGI: 9.68 µM
[28]
  GI50: 7.38 µM
  TGI: > 100 µM
[29]
  GI50: 3.23 µM
  TGI: 22.3 µM
[30]
  GI50: 5.48 µM
  TGI: 23 µM
[31]
  GI50: 4.38 µM
  TGI: 65.4 µM
[32]
  GI50: 3.67 µM
  TGI: 54 µM
[33]
  GI50: 6.23 µM
  TGI: > 100 µM
[34]
  GI50: 1.61 µM
  TGI: > 100 µM
[35]
  GI50: 8.03 µM
  TGI: > 100 µM
[36]
  GI50: 3.29 µM
  TGI: 16.2 µM
[37]
  GI50: 4.31 µM
  TGI: 25.7 µM
[38]
  GI50: 4.44 µM
  TGI: 24.3 µM
[39]
  GI50: 4.53 µM
  TGI: > 100 µM
[40]
  GI50: 17 µM
  TGI: 34.7 µM
[41]
  GI50: 4.74 µM
  TGI: 18.1 µM
[42]
  GI50: 3.82 µM
  TGI: 43.7 µM
[43]
  GI50: 2.86 µM
  TGI: 11.5 µM
[44]
  GI50: 4.05 µM
  TGI: 15.7 µM
[45]
  GI50: 3.35 µM
  TGI: 29.1 µM
[46]
  GI50: 6.62 µM
  TGI: 39.5 µM
[47]
  GI50: 1.36 µM
  TGI: 4.34 µM
[48]
  GI50: 2 µM
  TGI: 8.19 µM
[49]
  GI50: 4.06 µM
  TGI: > 100 µM
[50]
  GI50: 8.88 µM
  TGI: > 100 µM
[51]
  GI50: 3.37 µM
  TGI: 24.9 µM
[52]
  GI50: 3.48 µM
  TGI: 45.1 µM
[53]
  GI50: 9.49 µM
  TGI: > 100 µM
[54]
  GI50: 4.27 µM
  TGI: 56.5 µM
[55]
  GI50: 9.02 µM
  TGI: > 100 µM
[56]
  GI50: 4.6 µM
  TGI: 27.9 µM
[57]
  GI50: 3.98 µM
  TGI: 15.6 µM
[58]
  GI50: 11 µM
  TGI: 84.6 µM

## COc1cc(/C=C/C(=O)c2ccc(C)cc2)ccc1Oc1nc(Nc2ccc(F)cc2)nc(N(C)C)n1
[1]
  GI50: 14.7 µM
  TGI: 54.3 µM
[2]
  GI50: 4.2 µM
  TGI: 44.1 µM
[3]
  GI50: 6.27 µM
  TGI: 26.8 µM
[4]
  GI50: 1.84 µM
  TGI: 3.51 µM
[5]
  GI50: 8.86 µM
  TGI: > 100 µM
[6]
  GI50: 7.94 µM
  TGI: 74.5 µM
[7]
  GI50: 4.73 µM
  TGI: 16.8 µM
[8]
  GI50: 4.2 µM
  TGI: > 100 µM
[9]
  GI50: 19.1 µM
  TGI: > 100 µM
[10]
  GI50: 8.61 µM
  TGI: 44.3 µM
[11]
  GI50: 6.71 µM
  TGI: > 100 µM
[12]
  GI50: 7.64 µM
  TGI: 20.1 µM
[13]
  GI50: 13.3 µM
  TGI: 53.6 µM
[14]
  GI50: 41.8 µM
  TGI: > 100 µM
[15]
  GI50: 19.3 µM
  TGI: > 100 µM
[16]
  GI50: 4.64 µM
  TGI: 31.8 µM
[17]
  GI50: 13.8 µM
  TGI: 36.9 µM
[18]
  GI50: 20.5 µM
  TGI: 73.4 µM
[19]
  GI50: 8.83 µM
  TGI: 67.4 µM
[20]
  GI50: 3.32 µM
  TGI: 28.8 µM
[21]
  GI50: 2.8 µM
  TGI: 27.7 µM
[22]
  GI50: 8.15 µM
  TGI: 37.5 µM
[23]
  GI50: 11.4 µM
  TGI: 28.4 µM
[24]
  GI50: 3.57 µM
  TGI: 20.2 µM
[25]
  GI50: 32.2 µM
  TGI: > 100 µM
[26]
  GI50: 18.2 µM
  TGI: > 100 µM
[27]
  GI50: 5.24 µM
  TGI: 18.7 µM
[28]
  GI50: 2.36 µM
  TGI: 5.75 µM
[29]
  GI50: 15.4 µM
  TGI: > 100 µM
[30]
  GI50: 8.76 µM
  TGI: > 100 µM
[31]
  GI50: 12.1 µM
  TGI: 42.8 µM
[32]
  GI50: 3.92 µM
  TGI: > 100 µM
[33]
  GI50: 13.9 µM
  TGI: > 100 µM
[34]
  GI50: 3.25 µM
  TGI: 70.6 µM
[35]
  GI50: 25.8 µM
  TGI: > 100 µM
[36]
  GI50: 2.28 µM
  TGI: 5.85 µM
[37]
  GI50: 3 µM
  TGI: > 100 µM
[38]
  GI50: 12.3 µM
  TGI: 31.3 µM
[39]
  GI50: 4.57 µM
  TGI: 57.3 µM
[40]
  GI50: 41.7 µM
  TGI: > 100 µM
[41]
  GI50: 5.52 µM
  TGI: 27.7 µM
[42]
  GI50: 5.22 µM
  TGI: 19.6 µM
[43]
  GI50: 15.4 µM
  TGI: 33.3 µM
[44]
  GI50: 5.14 µM
  TGI: 21.7 µM
[45]
  GI50: 5.97 µM
  TGI: 27.5 µM
[46]
  GI50: 16.5 µM
  TGI: 68 µM
[48]
  GI50: 7.24 µM
  TGI: 89.5 µM
[49]
  GI50: 45.8 µM
  TGI: > 100 µM
[50]
  GI50: 13 µM
  TGI: > 100 µM
[51]
  GI50: 3.89 µM
  TGI: 20.3 µM
[52]
  GI50: 9.58 µM
  TGI: 30.7 µM
[53]
  GI50: 6.43 µM
  TGI: > 100 µM
[54]
  GI50: 7.19 µM
  TGI: 82.2 µM
[59]
  GI50: 3.57 µM
  TGI: > 100 µM
[55]
  GI50: 11.1 µM
  TGI: 27.3 µM
[56]
  GI50: 9.76 µM
  TGI: 53.2 µM
[57]
  GI50: 10.1 µM
  TGI: 42.8 µM
[58]
  GI50: 48.9 µM
  TGI: > 100 µM
